Legend:
His6-TEV-PPARγ-(234-505) = molecular target: T1, His6-TEV-PPARγ-(234-505) (Homo sapiens, UniProt P37231); experiment: TR-FRET Assay to Measure Co-R Peptide Recruitment to PPARγ; assay type: biochemical; details: Co-R peptide (SMRT-ID2) recruitment; top final concentration 20 μM; read-out: TR-FRET i-Ag; AC50
T1 construct: The His6-TEV-PPARγ-(234-505) protein for assay was expressed and purified; TEV cleavage site (N); made in house
T1 sequence (P37231 234-505): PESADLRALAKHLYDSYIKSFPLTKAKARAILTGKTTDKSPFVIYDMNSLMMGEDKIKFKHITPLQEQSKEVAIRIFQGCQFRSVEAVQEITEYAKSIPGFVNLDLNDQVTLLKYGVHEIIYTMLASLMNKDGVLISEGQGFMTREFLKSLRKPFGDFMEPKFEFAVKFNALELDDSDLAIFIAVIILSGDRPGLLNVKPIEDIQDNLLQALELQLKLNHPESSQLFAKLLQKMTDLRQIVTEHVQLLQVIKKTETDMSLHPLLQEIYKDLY
Method in brief: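 Corepressor recruitment is measured by adding terbium-labeled anti-His antibody and FITC SMRT-ID2 peptide, at 5 and 200 nM final, after a 20-minute room-temperature protein–compound incubation. After one further hour, signal is converted to percent response between DMSO and 500 nM T0070907 wells.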

UM-UC-9 engineered cells = experiment: Cell proliferation / short-term viability assay, CellTiter-Glo 144 h; assay type: cell-based, human; details: Homo sapiens, UM-UC-9, 144 h, read-out: CTGlo 144 h UMUC9.5, G150
Method in brief: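 Viability read by CellTiter-Glo 2.0 luminescence at day 7 versus DMSO-vehicle wells and a T0 plate measured on day 0. Cells: UM-UC-9 engineered assay-ready stocks, 500 cells/well in high-glucose DMEM with 10% FBS, 37° C, 5% CO2.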

Row | SMILES | AC50 (His6-TEV-PPARγ-(234-505)) [nM] | IC50 (UM-UC-9 engineered cells) [nM]
1 | COc1cc(-c2cc(C(=O)N3CC[C@H](C(=O)NC4CN(CC5(F)CC5)C4)CC34CC4)n[nH]2)c(F)cn1 [Example 406, (S)-4-(5-(5-fluoro-2-methoxypyridin-4-yl)-1H-pyrazole-3-carbonyl)-N-(1-((1-fluorocyclopropyl)methyl)azetidin-3-yl)-4-azaspiro[2.5]octane-7-carboxamide] | 34.1 | 73.3
2 | COc1cc(-c2cc(C(=O)N3CC[C@H](C(=O)NC4CCC5(CC4)N([S+]([O-])C(C)(C)C)CC5(F)F)CC34CC4)n[nH]2)c(F)cn1 (stereo partly drawn) [Example 409, (7S)—N-(1-(tert-butylsulfinyl)-3,3-difluoro-1-azaspiro[3.5]nonan-7-yl)-4-(5-(5-fluoro-2-methoxypyridin-4-yl)-1H-pyrazole-3-carbonyl)-4-azaspiro[2.5]octane-7-carboxamide] | 30.9 | 39.1
3 | COc1cc(-c2cc(C(=O)N3CC[C@H](C(=O)NCc4nnc(C)cc4C)CC34CC4)n[nH]2)c(F)cn1 [Example 412, (S)—N-((4,6-dimethylpyridazin-3-yl)methyl)-4-(5-(5-fluoro-2-methoxypyridin-4-yl)-1H-pyrazole-3-carbonyl)-4-azaspiro[2.5]octane-7-carboxamide] | 79.2 | 198
4 | COc1cc(-c2cc(C(=O)N3CC[C@@H](C(=O)NCc4ncc(Cl)cn4)CC34CC4)n[nH]2)c(F)cn1 [Example 413, (R)—N-((5-chloropyrimidin-2-yl)methyl)-4-(5-(5-fluoro-2-methoxypyridin-4-yl)-1H-pyrazole-3-carbonyl)-4-azaspiro[2.5]octane-7-carboxamide] | 15.2 | 55
5 | COc1cc(-c2cc(C(=O)N3CC[C@H](C(=O)NCc4cccc5ccnn45)CC34CC4)n[nH]2)c(F)cn1 [Example 416, (S)-4-(5-(5-fluoro-2-methoxypyridin-4-yl)-1H-pyrazole-3-carbonyl)-N-(pyrazolo[1,5-a]pyridin-7-ylmethyl)-4-azaspiro[2.5]octane-7-carboxamide] | 6.1 | 7.4
6 | COc1cc(-c2cc(C(=O)N3CCC(C(=O)NC4CC5COCC(C4)N5C)CC34CC4)n[nH]2)c(F)cn1 (stereo not drawn) [Example 419-A] | 359 | 854
7 | COc1cc(-c2cc(C(=O)N3CC[C@H](C(=O)N[C@H]4CN(c5ccc(C)nc5)C[C@@H]4F)CC34CC4)n[nH]2)c(F)cn1 [Example 427, (S)—N-((3S,4S)-4-fluoro-1-(6-methylpyridin-3-yl)pyrrolidin-3-yl)-4-(5-(5-fluoro-2-methoxypyridin-4-yl)-1H-pyrazole-3-carbonyl)-4-azaspiro[2.5]octane-7-carboxamide] | 10.5 | 4.2
8 | COc1cc(-c2cc(C(=O)N3CC[C@H](C(=O)N[C@H]4CN(c5ccc(C)nc5)C[C@H]4F)CC34CC4)n[nH]2)c(F)cn1 [Example 428, (S)—N-((3S,4R)-4-fluoro-1-(6-methylpyridin-3-yl)pyrrolidin-3-yl)-4-(5-(5-fluoro-2-methoxypyridin-4-yl)-1H-pyrazole-3-carbonyl)-4-azaspiro[2.5]octane-7-carboxamide] | 54.7 | 141
9 | COc1cc(-c2cc(C(=O)N3CC[C@H](C(=O)NC4C5CN(C6COC6)CC54)CC34CC4)n[nH]2)c(F)cn1 (stereo partly drawn) [Example 429, (7S)-4-(5-(5-fluoro-2-methoxypyridin-4-yl)-1H-pyrazole-3-carbonyl)-N-(3-(oxetan-3-yl)-3-azabicyclo[3.1.0]hexan-6-yl)-4-azaspiro[2.5]octane-7-carboxamide] | 347 | 1040
10 | COc1cc(-c2cc(C(=O)N3[C@@H]4CC[C@H]3C[C@H](C(=O)NC3CCC(O)(C(F)(F)CO)CC3)C4)n[nH]2)c(F)cn1 (stereo partly drawn) [Example 436, (1R,3s,5S)—N-(4-(1,1-difluoro-2-hydroxyethyl)-4-hydroxycyclohexyl)-8-(5-(5-fluoro-2-methoxypyridin-4-yl)-1H-pyrazole-3-carbonyl)-8-azabicyclo[3.2.1]octane-3-carboxamide] | 132 | > 10000
11 | COc1cc(-c2cc(C(=O)N3[C@@H]4CC[C@H]3C[C@H](C(=O)N[C@@H]3CCN(CC5(C(F)(F)F)CC5)C3)C4)n[nH]2)c(F)cn1 [Example 437, (1R,3s,5S)-8-(5-(5-fluoro-2-methoxypyridin-4-yl)-1H-pyrazole-3-carbonyl)-N—((R)-1-((1-(trifluoromethyl)cyclopropyl)methyl)pyrrolidin-3-yl)-8-azabicyclo[3.2.1]octane-3-carboxamide] | 14.8 | 67.6
12 | COc1cc(-c2cc(C(=O)N3[C@@H]4CC[C@H]3C[C@H](C(=O)NC3CCC(N)(C(F)(F)F)CC3)C4)n[nH]2)c(F)cn1 (stereo partly drawn) [Example 441, (1R,3s,5S)—N-(4-amino-4-(trifluoromethyl)cyclohexyl)-8-(5-(5-fluoro-2-methoxypyridin-4-yl)-1H-pyrazole-3-carbonyl)-8-azabicyclo[3.2.1]octane-3-carboxamide] | 56.7 | 350

Further lines, with some results ahead:

Row | AC50 (His6-TEV-PPARγ-(234-505)) [nM] | SMILES | IC50 (UM-UC-9 engineered cells) [nM]
13 | 164 | COc1cc(-c2cc(C(=O)N3CC[C@H](C(=O)NCc4ncc(F)cc4N4CCN(C)CC4)CC34CC4)n[nH]2)c(F)cn1 [Example 404, (S)-4-(5-(5-fluoro-2-methoxypyridin-4-yl)-1H-pyrazole-3-carbonyl)-N-((5-fluoro-3-(4-methylpiperazin-1-yl)pyridin-2-yl)methyl)-4-azaspiro[2.5]octane-7-carboxamide] | 887
14 | 681 | COc1cc(-c2cc(C(=O)N3CC[C@H](C(=O)NC4CCN(C5COC5)CC4)CC34CC4)n[nH]2)c(F)cn1 [Example 417, (S)-4-(5-(5-fluoro-2-methoxypyridin-4-yl)-1H-pyrazole-3-carbonyl)-N-(1-(oxetan-3-yl)piperidin-4-yl)-4-azaspiro[2.5]octane-7-carboxamide] | 1160
15 | 231 | COc1cc(-c2cc(C(=O)N3CC[C@H](C(=O)NC4CCN(S(C)(=O)=O)CC4)CC34CC4)n[nH]2)c(F)cn1 [Example 420, (S)-4-(5-(5-fluoro-2-methoxypyridin-4-yl)-1H-pyrazole-3-carbonyl)-N-(1-(methylsulfonyl)piperidin-4-yl)-4-azaspiro[2.5]octane-7-carboxamide] | 1370
16 | 24 | COc1cc(-c2cc(C(=O)N3CC[C@H](C(=O)N[C@@H]4CN(c5ccc(C)nc5)C[C@H]4F)CC34CC4)n[nH]2)c(F)cn1 [Example 426, (S)—N-((3R,4R)-4-fluoro-1-(6-methylpyridin-3-yl)pyrrolidin-3-yl)-4-(5-(5-fluoro-2-methoxypyridin-4-yl)-1H-pyrazole-3-carbonyl)-4-azaspiro[2.5]octane-7-carboxamide] | 50.9
17 | 5 | COc1cc(-c2cc(C(=O)N3CC[C@H](C(=O)Nc4cnn5ccc(Cl)nc45)CC34CC4)n[nH]2)c(F)cn1 [Example 430, (S)—N-(5-chloropyrazolo[1,5-a]pyrimidin-3-yl)-4-(5-(5-fluoro-2-methoxypyridin-4-yl)-1H-pyrazole-3-carbonyl)-4-azaspiro[2.5]octane-7-carboxamide] | 8.4
18 | 4.1 | COc1cc(-c2cc(C(=O)N3CC[C@H](C(=O)NCc4nccnc4C(F)(F)F)CC34CC4)n[nH]2)c(F)cn1 [Example 432, (S)-4-(5-(5-fluoro-2-methoxypyridin-4-yl)-1H-pyrazole-3-carbonyl)-N-((3-(trifluoromethyl)pyrazin-2-yl)methyl)-4-azaspiro[2.5]octane-7-carboxamide] | 9.1
19 | 11.9 | COc1cc(-c2cc(C(=O)N3CC[C@H](C(=O)NCc4ncc(N5CC(C)NC(C)C5)cc4Cl)CC34CC4)n[nH]2)c(F)cn1 (stereo partly drawn) [Example 434, (7S)—N-((3-chloro-5-(3,5-dimethylpiperazin-1-yl)pyridin-2-yl)methyl)-4-(5-(5-fluoro-2-methoxypyridin-4-yl)-1H-pyrazole-3-carbonyl)-4-azaspiro[2.5]octane-7-carboxamide] | 45.3
20 | 410 | COc1cc(-c2cc(C(=O)N3CC[C@H](C(=O)NCC45CC(C4)N(CC(C)(C)F)C5)CC34CC4)n[nH]2)c(F)cn1 [Example 440, (S)-4-(5-(5-fluoro-2-methoxypyridin-4-yl)-1H-pyrazole-3-carbonyl)-N-((2-(2-fluoro-2-methylpropyl)-2-azabicyclo[2.1.1]hexan-4-yl)methyl)-4-azaspiro[2.5]octane-7-carboxamide] | 927
21 | 399 | COc1cc(-c2cc(C(=O)N3CC[C@H](C(=O)NC45CC(C4)N(CC(C)(C)F)C5)CC34CC4)n[nH]2)c(F)cn1 [Example 442, (S)-4-(5-(5-fluoro-2-methoxypyridin-4-yl)-1H-pyrazole-3-carbonyl)-N-(2-(2-fluoro-2-methylpropyl)-2-azabicyclo[2.1.1]hexan-4-yl)-4-azaspiro[2.5]octane-7-carboxamide] | 583
